Results taken from patent publication US7683162B2, “Process of preparing a crystalline azithromycin monohydrate” (Taro Pharmaceutical Industries Limited, priority 2004, dated 2010).
Where two headings read alike, the source gives them in different places.

Key:
[1] = cited from earlier work; for hygroscopicity (in words) / stability (in words): as described in the cited patent or publication
[2] = Storage of crystalline azithromycin monohydrate under ambient conditions (25° C. and 60% relative humidity); assay type: physicochemical
From the text: (§1) The drying step in step (d) may be performed in stages. To achieve the desired water content, the isolated precipitate may first be dried for a period of time; and then dried for a subsequent period of time. Water content may be conveniently determined at different stages to ensure that a specified water content is achieved. Drying time and conditions may be easily optimized by one skilled in the art. Water content determination is in accordance to U.S. Pharmacopeia (USP) <921> Method I, which is incorporated herein by reference in its entirety.
(§2) (i) Chromatographic Conditions—The purity of a crystalline azithromycin monohydrate sample was determined using a high performance liquid chromatography (HPLC) instrument with a variable wavelength detector. The chromatographic conditions were: (i) Column—Xterra RP-18, endcapped 5 μm, 250×4.6 mm or equivalent; (ii) Flow Rate—1.0 mL/min; (iii) Column temperature—28° C.; (iv) Detection—UV at 215 nm; (v) Injection volume—20 μL; (vi) Run time—30 min; and, (vii) Mobile phase,Borate buffer pH=9.5: Acetonitrile (1:1, v/v). The mobile phase was prepared by adding NaOH (5N) to a solution of boric acid (about 1.2 grams) in water (1,000 mL; HPLC grade) to obtain a pH of 9.5.
(§3) (ii) Standard Solution for Purity Determination—A standard solution for purity determination was prepared by dissolving azithromycin monohydrate (about 50 mg, accurately weighed), in sufficient acetonitrile to fill a 25 mL volumetric flask. The azithromycin monohydrate used in the standard solution was prepared according to the procedure set forth in U.S. Pat. No. 6,268,489.
(§4) (iii) Preparation of Crystalline Azithromycin Monohydrate Sample Solution—A crystalline azithromycin monohydrate sample solution was prepared by transferring approximately 50 mg of the crystalline azithromycin monohydrate sample to be assayed into a 25 mL volumetric flask and diluting to volume with acetonitrile.
(§5) (iv) HPLC Protocol—The retention time of azithromycin was about 20 minutes. The retention time of azaerythromycin was about 13 minutes. Six replicates of the standard solution for determination of impurities, and 5 replicates of the standard solution for purity determination were injected into the HPLC system. The relative standard deviation of 5 replicate injections of the standard solution for purity determination was not more than 2.0%. The relative standard deviation of 6 replicate injections of the standard solution for determination of impurities was not more than 5.0%. If necessary, the mobile phase composition and/or flow rate were adjusted to meet the chromatographic parameters. The limit of detection for azaerythromycin was 0.04%. The limit of quantitation for azaerythromycin was 0.04%. The limit of detection for azithromycin was 0.04%. The limit of quantitation for azithromycin was 0.05%.
(§6) [formula] The terms are defined as follows: (i) Wst=Weight of standard in mg; (ii) Wsm=Weight of sample in mg; (iii) Ssm=Peak area of azithromycin obtained from sample solution; (iv) Sst=Average peak area of azithromycin obtained from standard solution for purity determination; (v) Pst=Purity of azithromycin standard in percent; and (vi) Msm=Water content of sample in percent. (B) Determination of Ethanol Content of Crystalline Azithromycin Monohydrate
(§7) The hygroscopicity of a crystalline azithromycin monohydrate was determined by monitoring its water content during storage. Specifically, the water content of the crystalline azithromycin monohydrate was determined at time zero and at various times thereafter during storage (e.g., 1, 2, and 3 months) under ambient conditions and accelerated conditions.

[3] = Storage of crystalline azithromycin monohydrate under accelerated conditions (40° C. and 75% relative humidity); assay type: physicochemical
From the text: as §1, §2, §3, §4, §5, §6, §7

[4] = 3 months at 25° C. and 60% relative humidity
[5] = 25° C., 60% relative humidity, 0 months
[6] = 25° C., 60% relative humidity, 3 months
[7] = 3 months at 40° C. and 75% relative humidity
[8] = 40° C., 75% relative humidity, 0 months
[9] = 40° C., 75% relative humidity, 1 month
[10] = 40° C., 75% relative humidity, 2 months
[11] = 40° C., 75% relative humidity, 3 months

## CC[C@H]1OC(=O)[C@H](C)[C@@H](O[C@H]2C[C@@](C)(OC)[C@@H](O)[C@H](C)O2)[C@H](C)[C@@H](O[C@@H]2O[C@H](C)C[C@H](N(C)C)[C@H]2O)[C@](C)(O)C[C@@H](C)CN(C)[C@H](C)[C@@H](O)[C@]1(C)O [azithromycin dihydrate]
[1]
  hygroscopicity (in words): non-hygroscopic
  stability (in words): stable

## CC[C@H]1OC(=O)[C@H](C)[C@@H](O[C@H]2C[C@@](C)(OC)[C@@H](O)[C@H](C)O2)[C@H](C)[C@@H](O[C@@H]2O[C@H](C)C[C@H](N(C)C)[C@H]2O)[C@](C)(O)C[C@@H](C)CN(C)[C@H](C)[C@@H](O)[C@]1(C)O.O [azithromycin monohydrate form]
[1]
  hygroscopicity (in words): non-hygroscopic
  stability (in words): stable

## CC[C@H]1OC(=O)[C@H](C)[C@@H](O[C@H]2C[C@@](C)(OC)[C@@H](O)[C@H](C)O2)[C@H](C)[C@@H](O[C@@H]2O[C@H](C)C[C@H](N(C)C)[C@H]2O)[C@](C)(O)C[C@@H](C)CN(C)[C@H](C)[C@@H](O)[C@]1(C)O [azithromycin monohydrate]
[1]
  hygroscopicity (in words): hygroscopic
  stability (in words): unstable

## CC[C@H]1OC(=O)[C@H](C)[C@@H](OC2CC(C)(OC)C(O)C(C)O2)[C@H](C)[C@@H](OC2OC(C)CC(N(C)C)C2O)[C@](C)(O)C[C@@H](C)CN(C)[C@H](C)C(O)[C@]1(C)O (stereo partly drawn) [azithromycin, 9-deoxo-9a-aza-9a-methyl-9a-homoerythromycin A]
[1]; acidic conditions, U.S. Pat. No. 6,586,576 B2
  stability under acidic conditions: unstable

## CC[C@H]1OC(=O)[C@H](C)[C@@H](O[C@H]2C[C@@](C)(OC)[C@@H](O)[C@H](C)O2)[C@H](C)[C@@H](O[C@@H]2O[C@H](C)C[C@H](N(C)C)[C@H]2O)[C@](C)(O)C[C@@H](C)CN(C)[C@H](C)[C@@H](O)[C@]1(C)O.O [crystalline azithromycin monohydrate]
[2]; [4]
  hygroscopicity (in words): non-hygroscopic
  stability (in words): stable
[2]; 3 months under ambient conditions
  water content after storage (in words): remained substantially unchanged
[2]; 3 months, ambient (room temperature)
  degradation products present after storage: less than 2 % (w/w)
[2]; [5]
  Appearance: White crystalline
  Azaerythromycin: 0.3%
  Other Impurities, RRT = 0.23: RRT = 0.23, % = 0.10
  Other Impurities, RRT = 0.26: RRT = 0.26, % = 0.20
  Other Impurities, RRT = 0.34: RRT = 0.34, % = 0.10
  Other Impurities, RRT = 0.42: RRT = 0.42, % = 0.30
  Other Impurities, RRT = 0.45: RRT = 0.45, % = 0.07
  Other Impurities, RRT = 0.48: RRT = 0.48, % = 0.20
  Other Impurities, RRT = 1.45: RRT = 1.45, % = 0.05
  Other Impurities, RRT = 1.50: RRT = 1.50, % = 0.20
  Other Impurities, RRT = 1.56: RRT = 1.56, % = 0.10
  Purity: 100.10%
  Total Impurities: 1.60%
  Water content: 5.9%
  pH: 10.4
[2]; [6]
  Appearance: White crystalline
  Azaerythromycin: 0.3%
  Other Impurities, RRT = 0.10: RRT = 0.10, % = 0.20
  Other Impurities, RRT = 0.24: RRT = 0.24, % = 0.10
  Other Impurities, RRT = 0.35: RRT = 0.35, % = 0.10
  Other Impurities, RRT = 0.43: RRT = 0.43, % = 0.30
  Other Impurities, RRT = 0.46: RRT = 0.46, % = 0.07
  Other Impurities, RRT = 0.49: RRT = 0.49, % = 0.20
  Other Impurities, RRT = 0.81: RRT = 0.81, % = 0.10
  Other Impurities, RRT = 0.84: RRT = 0.84, % = 0.08
  Other Impurities, RRT = 1.50: RRT = 1.50, % = 0.20
  Other Impurities, RRT = 1.55: RRT = 1.55, % = 0.10
  Purity: 98.70%
  Total Impurities: 1.80%
  Water content: 5.8%
  pH: 10.2
[3]; 3 months (at least about 3 months), 40° C. and 75% relative humidity
  degradation after storage: less than 2 % (w/w)
[3]; [7]
  hygroscopicity (in words): non-hygroscopic
  stability (in words): stable
[3]; 3 months under accelerated conditions
  water content after storage (in words): remained substantially unchanged
[3]; [8]
  Appearance: White
  Azaerythromycin: 0.3%
  Other Impurities, RRT = 0.23: % = 0.10
  Other Impurities, RRT = 0.26: % = 0.20
  Other Impurities, RRT = 0.34: % = 0.10
  Other Impurities, RRT = 0.42: % = 0.30
  Other Impurities, RRT = 0.45: % = 0.07
  Other Impurities, RRT = 0.48: % = 0.20
  Other Impurities, RRT = 1.45: % = 0.05
  Other Impurities, RRT = 1.50: % = 0.20
  Other Impurities, RRT = 1.56: % = 0.10
  Purity: 100.10%
  Total Impurities: 1.60%
  Water content: 5.9%
  pH: 10.4
[3]; [9]
  Appearance: White
  Azaerythromycin: 0.4%
  Other Impurities, RRT 0.23: 0.23, 0.10%
  Other Impurities, RRT 0.26: 0.26, 0.20%
  Other Impurities, RRT 0.35: 0.35, 0.10%
  Other Impurities, RRT 0.38: 0.38, 0.05%
  Other Impurities, RRT 0.43: 0.43, 0.30%
  Other Impurities, RRT 0.46: 0.46, 0.08%
  Other Impurities, RRT 0.48: 0.48, 0.20%
  Other Impurities, RRT 1.50: 1.50, 0.20%
  Other Impurities, RRT 1.56: 1.56, 0.20%
  Purity: 101.00%
  Total Impurities: 1.80%
  Water content: 5.9%
  pH: 10.0
[3]; [10]
  Appearance: White
  Azaerythromycin: 0.3%
  Other Impurities, RRT 0.23: 0.23, 0.10%
  Other Impurities, RRT 0.25: 0.25, 0.20%
  Other Impurities, RRT 0.34: 0.34, 0.10%
  Other Impurities, RRT 0.42: 0.42, 0.40%
  Other Impurities, RRT 0.45: 0.45, 0.05%
  Other Impurities, RRT 0.48: 0.48, 0.20%
  Other Impurities, RRT 1.50: 1.50, 0.20%
  Other Impurities, RRT 1.56: 1.56, 0.10%
  Purity: 99.50%
  Total Impurities: 1.70%
  Water content: 5.8%
  pH: 10.3
[3]; [11]
  Appearance: White
  Azaerythromycin: 0.3%
  Other Impurities, RRT 0.14: 0.14, 0.20%
  Other Impurities, RRT 0.24: 0.24, 0.10%
  Other Impurities, RRT 0.35: 0.35, 0.20%
  Other Impurities, RRT 0.43: 0.43, 0.40%
  Other Impurities, RRT 0.46: 0.46, 0.07%
  Other Impurities, RRT 0.49: 0.49, 0.20%
  Other Impurities, RRT 0.81: 0.81, 0.06%
  Other Impurities, RRT 0.85: 0.85, 0.05%
  Other Impurities, RRT 1.50: 1.50, 0.20%
  Other Impurities, RRT 1.55: 1.55, 0.08%
  Purity: 98.10%
  Total Impurities: 1.90%
  Water content: 5.7%
  pH: 10.3
[3]; at least 3 months at 40° C. and 75% relative humidity
  degradation after storage: less than 2%
[3]; at least about 3 months at 40° C. and 75% relative humidity
  change in the water content after storage: less than 5%
